Measured values taken from patent US20110269790A1, “NOVEL THIENOPYRIDINES AS PHARMACOLOGICALLY ACTIVE AGENTS” (priority 2009, published 2011).
Converted amounts (≈) assume the structure as drawn. “Also recorded” adds a separate entry of the source.

Assays:
[1] = tested on: crude intestinal α-glucosidase; test: In-vitro mammalian (rat intestinal) α-glucosidase inhibition assay; assay type: biochemical; conditions: for Mammalian α Glucosidase Inhibition (Mean ± S.E): highest concentration 5 mg/ml; for IC50: mammalian α-glucosidase, dose response study
Description: (§1) Chemicals: α-Glucosidase [(EC 3.2.1.20) Type I: from bakers yeast], rat intestinal acetone powder (as a source of crude intestinal α-glucosidase), α-amylase [EC 3.2.1.1) Type VI B: from porcine pancreas], p-nitrophenyl α-D-glucopyranoside, 3,5-dinitro salicylic acid, soluble potato starch and 1-deoxyrojirimycine, were purchased from Sigma Chemical Co., St Louis, Mo., USA. Other chemicals of analytical grade were procured from indigenous manufacturers.
In-vitro a-Glucosidase Inhibition Assay: Yeast and intestinal a-glucosidase inhibitory activities were determined as per reported methods (Babu et al., 2004; Mc Dougall et al., 2005). Rat intestinal acetone powder in normal saline (100% w/v) was sonicated properly and the supernatant was used as a source of crude intestinal a-glucosidase after centrifugation. In brief, 20 μl, of test samples (100 mg/ml DMSO solution) were reconstituted in 100 μl of 100 mM-Phosphate buffer (pH 6.8) in a 96-well microplate and incubated with 50 μl yeast a-glucosidase (0.76 μ/ml in same buffer) or crude intestinal a-glucosidase for 5 min before 50-μl substrate (5 mM, […] prepared in same buffer) was added. Release of p-nitrophenyol was measured at 405 nm spectrophotometrically (Spectra Mas Plus 384, Molecular Device corporation, Sunnyvale, Calif., USA) 5 min after incubation with substrate, individual blank for test samples were prepared to correct background absorbance where the substrate was replaced with 50 μl of buffer. The control sample contained 20 μl DMSO in place of test samples. The percentage of enzyme inhibition was calculated as (A−B/A)×100 where A is represents the absorbance of the control without test samples, and B represents the absorbance in the presence of test samples. […] The IC50 values were calculated by applying logarithmic regression analysis from the mean inhibitory values.

[2] = target: T1, porcine pancreatic α-amylase (Sus scrofa, UniProt P00690); test: α-Amylase inhibition assay; assay type: biochemical; conditions: 10 mg per ml; for Maltose released: a/b marks the respective control (Control-1 2.147, Control-2 3.429); for inhibition at 10000 µg/mL (stock): 0.05 h
T1 construct: α-amylase [EC 3.2.1.1) Type VI B: from porcine pancreas]; purchased Sigma Chemical Co., St Louis, Mo., USA; host or cells: porcine pancreas (natural source)
T1 sequence (P00690 16-511): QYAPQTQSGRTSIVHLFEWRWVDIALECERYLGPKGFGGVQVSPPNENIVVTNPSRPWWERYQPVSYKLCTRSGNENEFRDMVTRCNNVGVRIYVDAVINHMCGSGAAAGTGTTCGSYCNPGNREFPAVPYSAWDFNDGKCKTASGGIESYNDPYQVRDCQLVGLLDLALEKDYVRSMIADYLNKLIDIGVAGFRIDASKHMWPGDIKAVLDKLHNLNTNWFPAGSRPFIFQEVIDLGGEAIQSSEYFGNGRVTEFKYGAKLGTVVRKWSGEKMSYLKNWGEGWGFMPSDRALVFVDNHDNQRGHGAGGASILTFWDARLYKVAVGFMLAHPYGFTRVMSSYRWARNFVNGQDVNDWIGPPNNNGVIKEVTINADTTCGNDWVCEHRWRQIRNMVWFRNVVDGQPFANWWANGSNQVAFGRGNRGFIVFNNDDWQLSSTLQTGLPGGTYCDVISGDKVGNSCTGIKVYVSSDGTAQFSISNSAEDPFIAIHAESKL
Description: as §1
a-Amylase Inhibition Assay: The assay method was adopted from Ali et al. (2006) and modified accordingly to suite microplate reading. In brief, 40 μL of test samples (10 mg/mL DMSO) were reconstituted in 160 μL of 20 mM phosphate buffer (pH 6.9) containing 6.7 mM sodium chloride in 2 mL Eppendorf tubes and incubated with 200 μL of porcine pancreatic α-amylase) (4 U/mL prepared in ice cold distilled water) for 5 min. The reaction was started by the addition of 400-μL soluble potato starch solution (0.5% w/v in 20 mM phosphate buffer, pH 6.9). Exactly 3 min after incubation, 400 μL DNS color reagent (1.0 g of 3,5-dinitrosalicylic acid, 30 g of sodium potassium tartrate and 20 mL of 2 N NaOH to a final volume of 100 mL in distilled water) was added. Closed tubes were placed in a water bath (85-90° C.) for 10 min to develop color and cooled thereafter. 50 μL of reaction mixtures was diluted with 175 μL of distilled water in a 96-well microplate. α-Amylase activity was determined by measuring the absorbance of the mixture at 540 nm spectrophotometrically as above. Individual blanks were prepared to correct for the background absorbance due to test samples. In this case DNS solution was added in tubes before addition of substrate. The percentage inhibition of enzyme activity was calculated as above. All the tests were run in duplicate in this assay.

[3] = tested on: A431 (Skin cancer) cell lines; test: MTT assay, A431; assay type: cell-based; conditions: MTT, 48 hrs; for IC50: Homo sapiens, A-431, read-out: A431 cell lines IC50
Experimental: A431 (Skin cancer), Colo-205 (Colon cancer), A549 (Lung cancer) cell lines were obtained from National Center for Cell science (NCCS), Pune, India. DMEM (Dulbeccos Modified Eagles Medium), MTT [3-(4,5-dimethylthiazol-2-yl)-2,5-diphenyl tetrazolium bromide], Trypsin, EDTA were purchased from Sigma Chemicals Co (St. Louis, Mo.), Fetal bovine serum were purchased from Arrow labs, 96 well flat bottom tissue culture plates were purchased from Tarson.
A431, Colo-205, A549 cell lines were grown as adherent cells in DMEM media supplemented with 10% fetal bovine serum, 100 μg/ml penicillin, 200 μg/ml streptomycin, 2 mM L-glutamine, and culture was maintained in a humidified atmosphere with 5% CO2. Stock solution of 10 mg/ml was prepared for test molecules in DMSO. From the stock, various dilutions were made with sterile water to get required concentration. A431, Colo-205, A549 cell lines were seeded at a density of 1×10^4 cells (cell number was determined by Trypan blue exclusion dye method) per each well in 100 μl of DMEM supplemented with 10% FBS. 12 hrs after seeding, above media was replaced with fresh DMEM supplemented with 10% FBS. Then, 10 μl sample from above stock solutions were added to each well in triplicates which gives final concentration of 100, 50, 25, 10 μg/well. The above cells were incubated for 48 hrs at 37° C. with 5% CO2. After 48 hrs incubation the above media was replaced with 100 μl of fresh DMEM with out FBS and to this 10 μl of MTT (5 mg dissolved in 1 ml of PBS) was added and incubated for 3 hrs at 37° C. with 5% CO2. After 3 hrs of incubation, the above media was removed with multi channel pipette, then 200 μl of DMSO was added to each well and incubated at 37° C. for 15 min. Finally, the plate was read at 570 nm using spectrophotometer (Spectra Max, Molecular devices).

[4] = calculated from maltose released vs respective control

| Structure (SMILES) | Mammalian α-glucosidase inhibitory activity (in words) [1] | Mammalian α Glucosidase Inhibition (Mean ± S.E) [1] | Alpha amylase inhibitory activity (in words) [2] | Maltose released [2] | inhibition at 10000 µg/mL (stock) [2, 4] | IC50 [3] | Mammalian α-glucosidase inhibition (Mean ± S.E) ([1]; 0.039063 mg/ml) | Mammalian α-glucosidase inhibition (Mean ± S.E) ([1]; 0.078125 mg/ml) | Mammalian α-glucosidase inhibition (Mean ± S.E) ([1]; 0.15625 mg/ml) | Mammalian α-glucosidase inhibition (Mean ± S.E) ([1]; 0.3125 mg/ml) | Mammalian α-glucosidase inhibition (Mean ± S.E) ([1]; 0.625 mg/ml) | Mammalian α-glucosidase inhibition (Mean ± S.E) ([1]; 1.25 mg/ml) | Mammalian α-glucosidase inhibition (Mean ± S.E) ([1]; 2.5 mg/ml) | Mammalian α-glucosidase inhibition (Mean ± S.E) ([1]; 5 mg/ml) | IC50 [1] | % Inhibition [2, 4] | A431 cell lines IC50 [3] |
| --- | --- | --- | --- | --- | --- | --- | --- | --- | --- | --- | --- | --- | --- | --- | --- | --- | --- |
| Cc1sc2nc3c(c(N)c2c1C)CCCC3 [BN-2, 2,3-dimethyl-5,6,7,8-tetrahydrothieno[2,3-b]quinolin-4-amine] | moderate inhibitory activity | 40.0 ± 2.5% | strong inhibitory activity; also recorded: mild inhibition | 2.095 mg/mL | 39.7% | 31.6 µg/mL (≈ 136 µM) | – | – | – | – | – | – | – | – | – | – | – |
| Cc1sc2nc3c(c(N)c2c1C)CCC3 [BN-1, 2,3-dimethyl-6,7-dihydro-5H-cyclopenta[b]thieno[3,2-e]pyridin-4-amine] | – | 0.0 ± 0.0% | – | 2.20 mg/mL | -3.12% | 45.7 µg/mL (≈ 209 µM) | – | – | – | – | – | – | – | – | – | – | – |
| Nc1c2c(nc3sc4c(c13)CCC4)CCCC2 [BN-14, 2,3,6,7,8,9-Hexahydro-1H-cyclopenta[4,5]thieno[2,3-b]quinolin-10-amine] | significant inhibitory activity | 58.37% | – | 2.210 mg/mL | -3.06% | 99.3 µg/mL (≈ 406 µM) | 7.79 ± 3.11% | 20.75 ± 2.19% | 26.76 ± 1.37% | 34.49 ± 1.19% | 40.62 ± 0.63% | 51.56 ± 0.74% | 54.74 ± 1.01% | 58.37 ± 2.20% | 1560 µg/mL (≈ 6380 µM) | – | – |
| Nc1c2c(nc3sc4c(c13)CCC4)CCCCCC2 [BN-17, 2,3,6,7,8,9,10,11-Octahydro-1H-cycloocta [b]cyclopenta[4,5]thieno[3,2-e]pyridin-12-amine] | significant inhibitory activity | 75.39% | strong inhibitory activity | 1.028 mg/mL | – | – | 10.04 ± 4.42% | 26.77 ± 1.83% | 34.53 ± 2.61% | 44.41 ± 1.52% | 52.44 ± 1.56% | 66.57 ± 1.11% | 70.69 ± 2.75% | 75.39 ± 13.76% | 528 µg/mL (≈ 1940 µM) | 53.92% | 32.35 µg/mL |
| CC1CCc2c(nc3sc4c(c3c2N)CCC4)C1 (stereo not drawn) [BN-15, 7-Methyl-2,3,6,7,8,9-hexahydro-1H-cyclopenta[4,5]thieno[2,3-b]quinolin-10-amine] | significant inhibitory activity | 88.87% | strong inhibitory activity | 1.179 mg/mL | 46.7% | 40.7 µg/mL (≈ 158 µM) | 11.85 ± 3.45% | 31.57 ± 2.74% | 40.72 ± 2.26% | 52.37 ± 1.64% | 61.83 ± 0.26% | 78.49 ± 1.88% | 83.34 ± 3.13% | 88.87 ± 1.35% | 299 µg/mL (≈ 1160 µM) | – | – |
| CC1CCc2c(nc3sc4c(c3c2N)CCCC4)C1 (stereo not drawn) [BN-7, 8-Methyl-1,2,3,4,7,8,9,10-octahydrobenzo[4,5]thieno[2,3-b]quinolin-11-amine] | moderate inhibitory activity | 50.19 ± 0.93% | – | 2.163 mg/mL | -0.765% | 36.3 µg/mL (≈ 133 µM) | – | – | – | – | – | – | – | – | – | – | – |
| Nc1c2c(nc3sc4c(c13)CCC4)CCCCC2 [BN-16, 1,2,3,6,7,8,9,10-Octahydrocyclohepta[b]cyclopenta[4,5]thieno[3,2-e]pyridine-11-amine] | – | 4.46 ± 1.77% | mild inhibition | 1.492 mg/mL | 31.5% | 63 µg/mL (≈ 244 µM) | – | – | – | – | – | – | – | – | – | – | – |
| Nc1c2c(nc3sc4c(c13)CCCC4)CCCC2 [BN-6, 1,2,3,4,7,8,9,10-Octahydrobenzo[4,5]thieno[2,3-b]quinolin-11-amine] | – | 19.92 ± 1.27% | mild inhibition | 2.548 mg/mL | 26.2% | 36.3 µg/mL (≈ 140 µM) | – | – | – | – | – | – | – | – | – | – | – |
| Nc1c2c(nc3sc4c(c13)CCCC4)CCC2 [BN-5, 2,3,6,7,8,9-Hexahydro-1H-benzo[4,5]thieno[2,3-b]cyclopenta[e]pyridin-10-amine] | – | 0.0 ± 0.0% | – | 3.226 mg/mL | 4.85% | 141 µg/mL (≈ 577 µM) | – | – | – | – | – | – | – | – | – | – | – |
| Cc1sc2nc3c(c(N)c2c1C)CCCCC3 [BN-4, 2,3-dimethyl-6,7,8,9-tetrahydro-5H-cyclohepta[b]thieno[3,2-e]pyridin-4-amine] | moderate inhibitory activity | 38.37 ± 1.0% | – | 3.496 mg/mL | -2.01% | 47.8 µg/mL (≈ 194 µM) | – | – | – | – | – | – | – | – | – | – | – |
